Test [1] deals with recombinant human kappa (KOR) opioid receptor (Homo sapiens, UniProt P41145). The experiment in a line: Competitive radioligand binding at KOR ([3H]diprenorphine), CHO-K1 membranes.
The target in test [2] is T1, recombinant human mu (MOR) opioid receptor (Homo sapiens, UniProt P35372).
T1 construct: expressed in transfected cells; host or cells: CHO-K1 cells (membranes)
The experiment in a line: Competitive radioligand binding at MOR ([3H]naloxone), single concentration, CHO-K1 membranes. To be noted: 10 μM test compound; percent inhibition of specific [3H]naloxone (4 nM) binding; read-out: Mu Opioid Receptor Mu Receptor Inhibition % inhib @ 10 uM. How it is done:
The binding affinities of certain compounds of the present invention were evaluated using radioligand binding assays in membranes prepared from CHO-K1 cells expressing recombinant human kappa (KOR) or mu (MOR) opioid receptors.
Competition binding experiments were conducted by incubating membrane protein to equilibrium in triplicate in the presence of a fixed concentration of radioligand and increasing concentrations of test compound for evaluation of binding to KOR or single concentration (10 μM) of test compound for evaluation of binding to MOR in 101 μL final volume. The radioligands used were specific for each receptor type, and the assay conditions are described in Table 1. Following incubations, the membranes were rapidly filtered through GF/B filter plate (presoaked with 0.5% polyethyleneimine), washed five times with cold 50 mM Tris-HCl, pH 7.5, and the bound radioactivity was then measured by liquid scintillation counting. Non-specific binding was measured in the presence of excess ligand; this value was subtracted from the total binding to yield the specific binding at each test concentration.
Ki (affinity of test compound) was obtained using the Cheng Prusoff correction using experimental Kd (affinity of radioligand) values that were previously determined under these assay conditions. For MOR binding, compounds were tested at one concentration, 10 μM, to evaluate its ability to inhibit specific radioligand binding. The values are expressed as percent inhibition of specific binding and greater than 50% inhibition of binding was considered to be significant.

The target in test [3] is T2, KOR (kappa opioid receptor) (Homo sapiens, UniProt P41145).
T2 construct: expressed in transfected cells
The experiment in a line: Inhibition of cAMP accumulation in forskolin-stimulated CHO-K1 cells stably expressing KOR. The test is classed as cell-based. For orientation: Changes in cAMP serve as a functional read-out for many G protein-coupled receptors.

Where [4] appears, read: Cheng Prusoff correction using experimental Kd of radioligand, read-out: Kappa Opioid Receptor Ki.
Setting [5] is: read-out: Kappa Opioid Receptor IC50.

Each structure is given as a SMILES string. Read-outs that look alike come from different tables or passages of the source.

The text below walks through data of US10322107B2, “N-methyl-N-(1-phenyl-2-(1-pyrrolidinyl)ethyl)-2-aminophenylacetamide derivatives agonists for the kappa opioid receptor” (Nektar Therapeutics, priority 2014, dated 2019).

On to `CN(C(=O)Cc1ccc(Cl)c(Cl)c1)[C@H](CN1CCCC1)c1cccc(NS(=O)(=O)c2ccc(C#N)c(C(F)(F)F)c2)c1` [Example 1, (S)—N-(1-(3-(4-cyano-3-(trifluoromethyl)phenylsulfonamido)phenyl)-2-(pyrrolidin-1-yl)ethyl)-2-(3,4-dichlorophenyl)-N-methylacetamide], for which the inhibition constant (Ki) (in general, the equilibrium dissociation constant of an inhibitor or competing ligand from its target) in test [1] (setting [4]) turned out to be 4.84 nM. In addition, the concentration for half-maximal inhibition (IC50) (as a rule, the point on the concentration scale where inhibition reaches its midpoint) in test [1] (setting [5]) came out at 37.1 nM. For the same molecule, in test [2], the inhibition (commonly the change of the read-out against control, counted positive when it falls) at 10 µM stood at 89%. In addition, the half-maximal effective concentration (EC50) (as a rule, the concentration that produces a half-maximal response) in test [3] is 2 nM.

For `CN(C(=O)Cc1ccc(Cl)c(Cl)c1)[C@H](CN1CCCC1)c1cccc(NS(=O)(=O)c2cn(C)c(=O)n(C)c2=O)c1` [Example 2, (S)-2-(3,4-dichlorophenyl)-N-(1-(3-(1,3-dimethyl-2,4-dioxo-1,2,3,4-tetrahydropyrimidine-5-sulfonamido)phenyl)-2-(pyrrolidin-1-yl)ethyl)-N-methylacetamide], the inhibition constant Ki in test [1] (setting [4]) amounted to 0.7 nM. Besides, in test [1] (setting [5]), the IC50 is 5.36 nM. In addition, the inhibition at 10 µM in test [2] stood at 87.1%. In test [3], this molecule returned a concentration for a half-maximal effect (EC50) of 0.311 nM.

Turning to `CN(C(=O)Cc1ccc(Cl)c(Cl)c1)[C@H](CN1CCCC1)c1cccc(NS(=O)(=O)c2ccc(Cl)nc2)c1` [Example 3, (S)—N-(1-(3-(6-chloropyridine-3-sulfonamido)phenyl)-2-(pyrrolidin-1-yl)ethyl)-2-(3,4-dichlorophenyl)-N-methylacetamide], in test [1] (setting [4]), the Ki was determined as 0.36 nM. For the same molecule, the concentration for half-maximal inhibition (IC50) in test [1] (setting [5]) worked out at 2.79 nM. In test [2], the inhibition at 10 µM turned out to be 94.2%. For the same molecule, the response in test [3] was half-maximal at 0.29 nM (EC50).

As for `CN(C(=O)Cc1ccc(Cl)c(Cl)c1)[C@H](CN1CCCC1)c1cccc(NS(=O)(=O)c2cccnc2Cl)c1` [Example 4, (S)—N-(1-(3-(2-chloropyridine-3-sulfonamido)phenyl)-2-(pyrrolidin-1-yl)ethyl)-2-(3,4-dichlorophenyl)-N-methylacetamide], the inhibition constant (Ki) in test [1] (setting [4]) stood at 6.48 nM. In addition, the half-inhibitory concentration (IC50) in test [1] (setting [5]) came to 49.7 nM. Besides, in test [2], the inhibition at 10 µM was 91.8%. In test [3], this molecule displayed an EC50 of 1.75 nM.

With `CN(C(=O)Cc1ccc(Cl)c(Cl)c1)[C@H](CN1CCCC1)c1cccc(NS(=O)(=O)c2cn(C)nc2C(F)(F)F)c1` [Example 5, (S)-2-(3,4-dichlorophenyl)-N-methyl-N-(1-(3-(1-methyl-3-(trifluoromethyl)-1H-pyrazole-4-sulfonamido)phenyl)-2-(pyrrolidin-1-yl)ethyl)acetamide], the inhibition constant Ki in test [1] (setting [4]) came to 1.01 nM. Besides, in test [1] (setting [5]), the IC50 came to 7.74 nM. In test [2], the inhibition at 10 µM is 97%. The concentration for a half-maximal effect (EC50) in test [3] was 1.35 nM.

In the case of `Cc1noc(C)c1S(=O)(=O)Nc1cccc([C@@H](CN2CCCC2)N(C)C(=O)Cc2ccc(Cl)c(Cl)c2)c1` [Example 6, (S)-2-(3,4-dichlorophenyl)-N-(1-(3-(3,5-dimethylisoxazole-4-sulfonamido)phenyl)-2-(pyrrolidin-1-yl)ethyl)-N-methylacetamide], the Ki in test [1] (setting [4]) is 0.39 nM. Moreover, in test [1] (setting [5]), the IC50 is 3.01 nM. In addition, in test [2], the inhibition at 10 µM came out at 84.6%. The molecule further showed a 50% effective concentration (EC50) in test [3] of 1.15 nM.

Regarding `COCCN(C)S(=O)(=O)Nc1cccc([C@@H](CN2CCCC2)N(C)C(=O)Cc2ccc(Cl)c(Cl)c2)c1` [Example 7], the inhibitory constant (Ki) in test [1] (setting [4]) worked out at 0.09 nM. The IC50 in test [1] (setting [5]) turned out to be 0.67 nM. In test [2], the inhibition at 10 µM was 99.9%. Also, in test [3], the concentration giving a half-maximal response (EC50) was 0.19 nM.

For the molecule `CC(O)CS(=O)(=O)Nc1cccc([C@@H](CN2CCCC2)N(C)C(=O)Cc2ccc(Cl)c(Cl)c2)c1` (stereo partly drawn) [Example 8, 2-(3,4-dichlorophenyl)-N-((1S)-1-(3-(2-hydroxypropylsulfonamido)phenyl)-2-(pyrrolidin-1-yl)ethyl)-N-methylacetamide], in test [1] (setting [4]), the inhibition constant Ki was determined as 0.05 nM. The IC50 in test [1] (setting [5]) turned out to be 0.35 nM. Besides, the inhibition at 10 µM in test [2] was found to be 99%. This molecule registered an EC50 in test [3] of 0.06 nM.

Consider `COCCN(CCOC)S(=O)(=O)Nc1cccc([C@@H](CN2CCCC2)N(C)C(=O)Cc2ccc(Cl)c(Cl)c2)c1` [Example 9, (S)—N-(1-(3-((N,N-bis(2-methoxyethyl)sulfamoyl)amino)phenyl)-2-(pyrrolidin-1-yl)ethyl)-2-(3,4-dichlorophenyl)-N-methylacetamide], for which the inhibitory constant (Ki) in test [1] (setting [4]) was determined as 0.47 nM. For the same molecule, the IC50 in test [1] (setting [5]) is 3.58 nM. For the same molecule, in test [2], the inhibition at 10 µM came out at 101%. Also, in test [3], the EC50 was found to be 0.5 nM.

In the case of `CN(C(=O)Cc1ccc(Cl)c(Cl)c1)[C@H](CN1CCCC1)c1cccc(NS(=O)(=O)c2cc(Cl)c(Cl)s2)c1` [Example 10, (S)-2-(3,4-dichlorophenyl)-N-(1-(3-(4,5-dichlorothiophene-2-sulfonamido)phenyl)-2-(pyrrolidin-1-yl)ethyl)-N-methylacetamide], the Ki in test [1] (setting [4]) was found to be 1.25 nM. The IC50 in test [1] (setting [5]) stood at 9.61 nM. The inhibition at 10 µM in test [2] came out at 95.9%. In addition, the EC50 in test [3] is 3.74 nM.

`CN(C(=O)C(c1ccccc1)c1ccccc1)[C@H](CN1CCCC1)c1cccc(NS(=O)(=O)CCOCC(F)(F)F)c1` [Example 11, (S)—N-methyl-2,2-diphenyl-N-(2-(pyrrolidin-1-yl)-1-(3-(2-(2,2,2-trifluoroethoxy)ethylsulfonamido)phenyl)ethyl)acetamide]: the Ki in test [1] (setting [4]) is 45 nM. For the same molecule, the IC50 in test [1] (setting [5]) stood at 345 nM. Moreover, the inhibition at 10 µM in test [2] stood at 57.6%. A half-maximal effect in test [3] (EC50) was put at 28.8 nM.

Consider `CC(O)CS(=O)(=O)Nc1cccc([C@@H](CN2CCCC2)N(C)C(=O)C(c2ccccc2)c2ccccc2)c1` (stereo partly drawn) [Example 12, N-((1S)-1-(3-(2-hydroxypropylsulfonamido)phenyl)-2-(pyrrolidin-1-yl)ethyl)-N-methyl-2,2-diphenylacetamide], for which, in test [1] (setting [4]), the Ki is 48.8 nM. In test [1] (setting [5]), the IC50 was found to be 374 nM. The inhibition at 10 µM in test [2] is 47%. The EC50 in test [3] came out at 18.5 nM.

As to `CC(O)CS(=O)(=O)Nc1cccc([C@@H](CN2CCCC2)N(C)C(=O)Cc2ccc(C(F)(F)F)cc2)c1` (stereo partly drawn) [Example 13, N-((1S)-1-(3-(2-hydroxypropylsulfonamido)phenyl)-2-(pyrrolidin-1-yl)ethyl)-N-methyl-2-(4-(trifluoromethyl)phenyl)acetamide], the Ki in test [1] (setting [4]) was determined as 0.1 nM. Also, the IC50 in test [1] (setting [5]) is 0.75 nM. Besides, in test [2], the inhibition at 10 µM stood at 95.4%. Moreover, the response in test [3] was half-maximal at 0.067 nM (EC50).

Take `CN(C(=O)Cc1ccc(F)cc1F)[C@H](CN1CC[C@H](O)C1)c1ccc(OCCO)cc1` [Example 15, 2-(2,4-Difluorophenyl)-N-{(1S)-1-[4-(2-hydroxyethoxy)phenyl]-2-[(3S)-3-hydroxypyrrolidin-1-yl]ethyl}-N-methylacetamide]: the inhibition constant Ki in test [1] (setting [4]) amounted to 0.69 nM. For the same molecule, the concentration for half-maximal inhibition (IC50) in test [1] (setting [5]) was found to be 5.27 nM. In addition, the inhibition at 10 µM in test [2] amounted to 23.5%. In test [3], this molecule displayed an EC50 of 0.164 nM.

As to `Cc1ccc(CC(=O)N(C)[C@H](CN2CC[C@H](O)C2)c2ccc(OCCO)cc2)cn1` [Example 16, N-{(1S)-1-[4-(2-Hydroxyethoxy)phenyl]-2-[(3S)-3-hydroxypyrrolidin-1-yl]ethyl}-N-methyl-2-(6-methylpyridin-3-yl)acetamide], the Ki in test [1] (setting [4]) is 1.34 nM. In test [1] (setting [5]), the IC50 amounted to 10.3 nM. Moreover, in test [2], the inhibition at 10 µM was determined as 28.4%. In addition, the EC50 in test [3] worked out at 0.294 nM.

Turning to `CN(C(=O)Cc1nccs1)[C@H](CN1CC[C@H](O)C1)c1ccc(OCCO)cc1` [Example 18, N-{(1S)-1-[4-(2-Hydroxyethoxy)phenyl]-2-[(3S)-3-hydroxypyrrolidin-1-yl]ethyl}-N-methyl-2-(1,3-thiazol-2-yl)acetamide], the IC50 in test [1] is 135 nM. Moreover, the Ki in test [1] (setting [4]) was 17.6 nM. The inhibition at 10 µM in test [2] is -3.2%. In addition, the EC50 in test [3] was 4.67 nM.

Regarding `CN(C(=O)Cc1ccc(F)cc1F)[C@H](CN1CC[C@H](OCCO)C1)c1ccc(OCCO)cc1` [Example 20, 2-(2,4-difluorophenyl)-N—((S)-1-(4-(2-hydroxyethoxy)phenyl)-2-((S)-3-(2-hydroxyethoxy)pyrrolidin-1-yl)ethyl)-N-methylacetamide], the Ki in test [1] (setting [4]) came out at 7490 nM. In addition, the IC50 in test [1] (inhibition of specific [3H]diprenorphine (1 nM) binding, one experiment in triplicate, read-out: Kappa Opioid Receptor IC50) is 57400 nM. Besides, in test [2], the inhibition at 10 µM was -29.4%. Besides, the EC50 in test [3] came out at 2670 nM.

Take `CN(C(=O)Cc1ccc(F)c(F)c1)[C@H](CN1CC[C@H](OCCO)C1)c1ccc(OCCO)cc1` [Example 21, 2-(3,4-Difluorophenyl)-N-{(1S)-1-[4-(2-hydroxyethoxy)phenyl]-2-[(3S)-3-(2-hydroxyethoxy)pyrrolidin-1-yl]ethyl}-N-methylacetamide]: in test [1], the IC50 turned out to be 1450 nM and the Ki worked out at 189 nM. Also, the inhibition at 10 µM in test [2] was determined as 0%. For the same molecule, in test [3], the half-maximal effective concentration (EC50) was determined as 33.3 nM.

Consider `CN([C@H](CN1CC[C@H](O)C1)c1ccc(OCCO)cc1)S(=O)(=O)Cc1ccc(Cl)c(Cl)c1` [Example 22, 1-(3,4-Dichlorophenyl)-N-{(1S)-1-[4-(2-hydroxyethoxy)phenyl]-2-[(3S)-3-hydroxypyrrolidin-1-yl]ethyl}-N-methylmethanesulfonamide], for which, in test [1] (setting [4]), the inhibitory constant (Ki) is 32.2 nM. Besides, the IC50 in test [1] (setting [5]) was found to be 247 nM. Besides, the inhibition at 10 µM in test [2] is -10.3%. The molecule also came in with an EC50 in test [3] of 15.5 nM.
